Legend:
Cyperus iria = assay: Preemergence weed control under flooded paddy conditions, CYPIR (Rice Flatsedge); assay type: in vivo; conditions: flooded paddy, rated three to four weeks after treatment; note: meaning of each grade not given here
[1] = system: Cyperus serotinus, Rottb.; assay: Preemergence weed control under flooded paddy conditions, CYPSE (Flatsedge); assay type: in vivo; conditions: rated three to four weeks after treatment; note: meaning of each grade not given here
[2] = system: Echinochloa oryzoides (Ard.) Fritsch.; assay: Preemergence weed control under flooded paddy conditions, ECHORC (Watergrass (Calif.)); assay type: in vivo; conditions: flooded paddy, rated three to four weeks after treatment; note: meaning of each grade not given here
Sagittaria pygmaea, L. = assay: Preemergence weed control under flooded paddy conditions, SAGPY (Arrowhead (Pygmaea)); assay type: in vivo; conditions: flooded paddy, rated three to four weeks after treatment; note: meaning of each grade not given here
[3] = system: Oryza sativa, (L.) Tebonnet; assay: Rice tolerance to post-transplant applications under flooded paddy conditions (Example 187), ORYSAT (Rice, Tebonnet); conditions: rated three to four weeks after treatment
[4] = system: Monochoria vaginalis, Presl.; assay: Preemergence weed control under flooded paddy conditions, MOOVA (Monochoria); assay type: in vivo; conditions: flooded paddy, rated three to four weeks after treatment; note: meaning of each grade not given here
[5] = 0.0313 kg/ha, preemergence weeds
[6] = 0.0625 kg/ha, preemergence weeds
[7] = 0.1250 kg/ha, preemergence weeds
[8] = 0.2500 kg/ha, preemergence weeds

Structure (SMILES)	herbicidal effect rating, CYPIR (Cyperus iria; [5])	herbicidal effect rating, CYPIR (Cyperus iria; [6])	herbicidal effect rating, CYPIR (Cyperus iria; [7])	herbicidal effect rating, CYPIR (Cyperus iria; [8])	herbicidal effect rating, CYPSE [1, 5]	herbicidal effect rating, CYPSE [1, 6]	herbicidal effect rating, CYPSE [1, 7]	herbicidal effect rating, ECHORC [2, 5]	herbicidal effect rating, ECHORC [2, 6]	herbicidal effect rating, ECHORC [2, 7]	herbicidal effect rating, ECHORC [2, 8]	herbicidal effect rating, SAGPY (Sagittaria pygmaea, L.; [5])	herbicidal effect rating, SAGPY (Sagittaria pygmaea, L.; [6])	herbicidal effect rating, SAGPY (Sagittaria pygmaea, L.; [7])	herbicidal effect rating, SAGPY (Sagittaria pygmaea, L.; [8])	herbicidal effect rating, ORYSAT (rice tolerance) ([3]; 0.0313 kg/ha)	herbicidal effect rating, ORYSAT (rice tolerance) ([3]; 0.0625 kg/ha)	herbicidal effect rating, ORYSAT (rice tolerance) ([3]; 0.1250 kg/ha)	herbicidal effect rating, ORYSAT (rice tolerance) ([3]; 0.2500 kg/ha)	herbicidal effect rating, MOOVA [4, 5]	also measured
Cc1ccc(OC2CC(C)OC2=O)c(-c2nsc3ccc(-n4c(=O)cc(C(F)(F)F)n(C)c4=O)cc23)c1 (racemic) [Example 189, 1-Methyl-3-{3-{6-[(tetrahydro-5-methyl-2-oxo-3-furyl)oxy]-m-tolyl}-1,2-benzisothiazol-5-yl}-6-(trifluoromethyl)-2,4(1H,3H)-pyrimidinedione, DL-]	0.0	0.0	0.0	0.0	0.0	0.0	0.0	0.0	0.0	0.0	0.0	0.0	0.0	0.0	0.0	0.0	0.0	0.0	0.0	0.0	herbicidal effect rating, CYPSE [1, 8]: 0.0; herbicidal effect rating, MOOVA [4, 6]: 0.0; herbicidal effect rating, MOOVA [4, 7]: 2.0; herbicidal effect rating, MOOVA [4, 8]: 8.0
COCC(C)OC(=O)COc1ccc(C)cc1-c1nsc2ccc(-n3c(=O)cc(C(F)(F)F)n(C)c3=O)cc12 (racemic) [Example 192, 1-Methyl-2-methoxyethyl {{2-{5-[3,6-dihydro-3-methyl-2,6-dioxo-4-(trifluoromethyl)-1(2H)-pyrimidinyl]-1,2-benzisothiazol-3-yl}-p-tolyl}oxy}acetate, DL-]	0.0	0.0	2.0	7.0	0.0	0.0	0.0	1.0	4.0	9.0	9.0	0.0	0.0	2.0	9.0	1.0	2.0	3.0	4.0	9.0	herbicidal effect rating, MOOVA [4, 6]: 9.0; herbicidal effect rating, MOOVA [4, 7]: 9.0; herbicidal effect rating, MOOVA [4, 8]: 9.0
CSCc1nsc2ccc(-n3c(=O)cc(C(F)(F)F)n(C)c3=O)cc12 [Example 21, 1-Methyl-3-{3-{(methylthio)methyl]-1,2-benzisothiazol-5-yl}-6-(trifluoromethyl)-2,4(1H,3H)-pyrimidinedione]	–	–	–	–	–	–	–	–	–	–	–	–	–	–	–	1.7	2.0	2.3	4.3	–	herbicidal effect rating, CYPIR (Cyperus iria; 0.0313 kg/ha, preemergence): 0.0; herbicidal effect rating, CYPIR (Cyperus iria; 0.0625 kg/ha, preemergence): 0.0; herbicidal effect rating, CYPIR (Cyperus iria; 0.1250 kg/ha, preemergence): 0.5; herbicidal effect rating, CYPIR (Cyperus iria; 0.2500 kg/ha, preemergence): 1.0; herbicidal effect rating, CYPSE ([1]; 0.0313 kg/ha, preemergence): 0.0; herbicidal effect rating, CYPSE ([1]; 0.0625 kg/ha, preemergence): 0.0; herbicidal effect rating, CYPSE ([1]; 0.1250 kg/ha, preemergence): 0.0; herbicidal effect rating, CYPSE ([1]; 0.2500 kg/ha, preemergence): 0.0; herbicidal effect rating, ECHORC ([2]; 0.0313 kg/ha, preemergence): 0.0; herbicidal effect rating, ECHORC ([2]; 0.0625 kg/ha, preemergence): 0.7; herbicidal effect rating, ECHORC ([2]; 0.1250 kg/ha, preemergence): 2.7; herbicidal effect rating, ECHORC ([2]; 0.2500 kg/ha, preemergence): 4.7; herbicidal effect rating, SAGPY (Sagittaria pygmaea, L.; 0.0313 kg/ha, preemergence): 0.0; herbicidal effect rating, SAGPY (Sagittaria pygmaea, L.; 0.0625 kg/ha, preemergence): 0.0; herbicidal effect rating, SAGPY (Sagittaria pygmaea, L.; 0.1250 kg/ha, preemergence): 0.0; herbicidal effect rating, SAGPY (Sagittaria pygmaea, L.; 0.2500 kg/ha, preemergence): 0.0; herbicidal effect rating, MOOVA ([4]; 0.0313 kg/ha, preemergence): 4.0; herbicidal effect rating, MOOVA ([4]; 0.0625 kg/ha, preemergence): 6.0; herbicidal effect rating, MOOVA ([4]; 0.1250 kg/ha, preemergence): 7.5; herbicidal effect rating, MOOVA ([4]; 0.2500 kg/ha, preemergence): 9.0

From EP0908457B1, “3-(1,2-benzisothiazol- and isoxazol-5-Y1)-2,4(1H,3H)-pyrimidinedione or thione and 3-(1,2-benzisothiazol- and isoxazol-5-y1)-4(3H)-pyrimidinone or thione herbicidal agents” (BASF AKTIENGESELLSCHAFT, priority 1997, dated 1999)
